Assay results as given in PMC11091967, “Silicon-Rhodamine Functionalized Evocalcet Probes Potently and Selectively Label Calcium Sensing Receptors In Vitro, In Vivo, and Ex Vivo” (ACS Pharmacology & Translational Science, 2024).
Like-named read-outs stand apart in the source and are kept apart here. Each block holds one molecule with its values, some of them ahead of it.

Tests used:
human CaSR [1] = biological target: T1, human CaSR (Homo sapiens, UniProt P41180); experiment: FLIPR-based functional CaSR calcium assay in HCAR cells; type: cell-based; settings: HCAR cells
T1 construct: host or cells: CCL39 hamster lung fibroblasts stably transfected (HCAR), Geneticin selection
T1 sequence (P41180 20-1078): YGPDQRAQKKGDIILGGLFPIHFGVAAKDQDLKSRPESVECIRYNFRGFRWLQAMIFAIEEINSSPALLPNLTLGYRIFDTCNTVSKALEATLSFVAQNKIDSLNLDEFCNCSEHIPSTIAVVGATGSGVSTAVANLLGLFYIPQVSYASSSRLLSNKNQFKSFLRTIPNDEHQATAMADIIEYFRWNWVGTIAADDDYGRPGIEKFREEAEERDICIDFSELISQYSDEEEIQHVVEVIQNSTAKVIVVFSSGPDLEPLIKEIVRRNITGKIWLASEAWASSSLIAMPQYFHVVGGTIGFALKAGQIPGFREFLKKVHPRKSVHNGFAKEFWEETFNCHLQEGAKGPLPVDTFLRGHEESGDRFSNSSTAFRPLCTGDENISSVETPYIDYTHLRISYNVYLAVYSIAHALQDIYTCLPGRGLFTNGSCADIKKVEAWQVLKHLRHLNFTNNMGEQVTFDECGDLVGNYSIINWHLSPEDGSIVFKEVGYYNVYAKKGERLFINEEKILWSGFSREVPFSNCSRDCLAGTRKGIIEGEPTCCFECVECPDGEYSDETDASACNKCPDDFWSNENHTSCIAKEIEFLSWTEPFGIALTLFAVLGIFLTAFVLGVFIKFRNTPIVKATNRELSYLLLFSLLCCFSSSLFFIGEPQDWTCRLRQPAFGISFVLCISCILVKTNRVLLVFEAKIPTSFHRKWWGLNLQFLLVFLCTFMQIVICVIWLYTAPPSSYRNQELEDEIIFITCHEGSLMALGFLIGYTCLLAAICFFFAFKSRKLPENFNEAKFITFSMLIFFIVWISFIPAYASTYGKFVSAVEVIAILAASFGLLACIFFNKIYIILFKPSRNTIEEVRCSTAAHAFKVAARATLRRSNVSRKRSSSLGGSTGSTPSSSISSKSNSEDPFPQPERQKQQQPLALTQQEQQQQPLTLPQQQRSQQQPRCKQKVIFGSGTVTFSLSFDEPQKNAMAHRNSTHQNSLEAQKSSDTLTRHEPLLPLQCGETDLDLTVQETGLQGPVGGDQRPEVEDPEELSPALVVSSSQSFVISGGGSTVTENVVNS
Protocol: Hamster lung fibroblasts (CCL39, CaSR−) expressing the recombinant human CaSR (HCAR, CaSR+) and nontransected controls were kindly provided by Novartis AG and were kept in standard culturing conditions (37 °C, 5% CO2) in 1/2 DMEM (Roth, 9005.1)—1/2 F-12 (Sigma, N4888–500 mL) media containing 10% FBS. Media for the HCAR cells contained 500 μg/mL Geneticin as a selection antibiotic (Thermo Fisher, 10131035). Upon reaching 90–95% confluence, cells were detached and seeded into 96-well plates (PerkinElmer, 6005182) at a concentration of 35,000 cells per well and were incubated for 24 h before the experiment. For the functional CaSR calcium assay, cells were first washed twice with HBSS medium (Sigma, H6648), and were incubated in HBSS containing 5 μM Fluo-8 AM and 0.1 mM CaCl2 for 30 min at 37 °C. Calcium transients were measured upon addition of 0.5 mM CaCl2 with the FLIPR Tetra high-throughput cellular screening systems using the 470–495 nm LED excitation and 515–575 nm bandpass emission filters. Probe solutions contained 0.5% DMSO and were added to the cells 10 min prior to the measurement. dF/F0 values were calculated as a change in the peak fluorescence value of the transient for the first 200 data points normalized to the background fluorescence of the well. […] Both cells were washed with HBSS medium twice and then incubated for 10 min at 37 °C in HBSS medium containing 0.1% BSA in the presence or absence of 10 μM evocalcet. Upon the removal of media, cells were incubated in various concentrations of EvoSiR4 and EvoSiR6 in HBSS containing 0.1% BSA for 30 min at 37 °C and were subsequently washed 3 times with 0.1% BSA and resuspended in DMSO before the fluorometric measurement. The fluorescence was measured using a Tecan GENios pro microplate reader with the following parameters: λex = 612 nm, λem = 670 nm, gain = 50 AU. Data for the EvoSiR probes and the evocalcet competition is reported as CaSR-specific fluorescence, which was calculated by dividing the absolute fluorescence of the HCAR cells with the absolute fluorescence of the CCL39 cells for each concentration.

[2] = system: hair cells of the neuromasts within the lateral line organ; experiment: In vivo labeling of neuromasts in zebrafish larvae; set-up: species or system zebrafish (Danio rerio); settings: 4–6 dpf larvae, neuromasts identified with DiAsp
Protocol: For the neuromast labeling experiments, wild-type 4–6 days post fertilization (dpf) zebrafish larvae were incubated in 200 μL of E3 medium containing different doses of the SiR probes (500–5000 nM), 2.5 μM 4-(4-diethylaminostyryl)-1-methyl-pyridinium-iodid (DiAsp, Sigma, D3418), which specifically labels hair cells in the lateral line in 0.5% DMSO for 30 min (35). Next, washing and anesthesia were achieved by placing the larvae in a 35 mm imaging dish (MolBiTec, Imaging dish 1.5) which contained 500 μL of E3 medium with 168 mg/L MS-222 (Tricaine Mehanesulfonate, Sigma) for 10 min. After removing the solution, fish were side-embedded in the imaging dish using 500 μL of 0.75% low-melting temperature agarose (Sigma, A4018). Wide-field imaging was done using the Zeiss Axio Observer fluorescence microscope (LD A-Plan 10× objective, NA = 0.25), and confocal imaging was done using a Zeiss LSM 800 confocal fluorescence microscope (LD LCI Plan-Apochromat 25× objective, NA = 0.8).

[3] = Spectrofluorometric fluorescence in PBS and effect of pH; type: physicochemical; settings: PBS
Protocol: (§1) Spectrofluorometric measurements were carried out by using the Agilent Cary Eclipse instrument. The voltage of the photomultiplier tube (PMT) was set to 600 for EvoSiR4 and EvoSiR6, and for 500 for SiR (4). Fluorescence of the probes was measured at concentrations ranging from 30 to 3000 nM in PBS containing various amounts of bovine serum albumin (BSA) (Sigma, A7906). Quenching experiments for the calculation of BSA binding were performed by adding a 1:1 molar ratio of tannic acid dissolved in ddH2O (Sigma, 403040) to the solution prior to measuring fluorescence.

[4] = biological target: T2, bovine serum albumin (BSA) (Bos taurus, UniProt P02769); experiment: Spectrofluorometric analysis of fluorogenicity upon BSA binding; type: physicochemical
T2 construct: purchased Sigma A7906
Protocol: as §1

[5] = Photophysical characterization; type: physicochemical; set-up: λex / λem: unit not given here
human CaSR [6] = biological target: T1, human CaSR; experiment: In vitro labeling of CaSR expressing (HCAR) and control (CCL39) cells, fluorescence microscopy; type: cell-based
Protocol: HCAR (CaSR+) and CCL39 (CaSR−) cells were kindly obtained from Novartis AG (Basel, Switzerland) and validated in house. The cells were seeded into μ-slide 18 well plates (ibidi, 81816) at a density of 5000 cells per well and were incubated for 24 h under standard culturing conditions. As our preliminary data indicated considerable nonspecific labeling of dying cells and cellular debris, a viability staining was introduced to ensure probe specificity.[29] Thus, after washing twice with HBSS, cells were incubated in 10 μM Calcein AM solution containing 0.02% Pluronic F-127 and 0.1% DMSO for 45 min at 37 °C. The solution was then removed and washed twice in HBSS before the addition of the HBSS solution containing the SiR probes. All probe solutions were protected from light exposure and contained 0.5% DMSO and various concentrations of BSA depending on the experiment. Incubation with the fluorescent probes was 20 min long, after which a single washing step was introduced with HBSS before imaging. Images of the cells (Calcein: FITC channel, SiR: Cy5 channel) were acquired with a Nikon Eclipse TI2 inverted wide-field fluorescence microscope using a 60× magnification oil immersion objective (Nikon CFI Plan Fluor, 60×, NA = 0.85). For each well, a minimum of 3 images were acquired. For each image, cells were segmented to generate labels on the FITC channel postacquisition using the deep neural network-based Cellpose package in Python 3.9 (model_type: cyto2, diameter: 200, flow_threshold: 0.4).[30] To normalize pixel intensity values across images, for each image, a background value was calculated by taking the average pixel intensity value of the pixels in which no cellular label was present and were negative for the EvoSiR label (triangle thresholding used). For each cell, the skewness of the value distribution and the mean of the Cy5 pixel intensities were calculated. The procedure for evaluating the long-term labeling (72 h) of EvoSiR probes on CCL39 and HCAR cells was similar, with the following modifications: images were retrieved using 10× magnification air objectives (Nikon CFI Plan Fluor 10×, NA = 0.3), in the neural network model, the diameter parameter was set to 30, and only the mean Cy5 pixel intensities per cell object were retrieved.

[7] = Fluorescence quenching of SiR probes by tannic acid, spectrofluorometer; type: physicochemical
Protocol: as §1

T2 sequence (P02769 25-607): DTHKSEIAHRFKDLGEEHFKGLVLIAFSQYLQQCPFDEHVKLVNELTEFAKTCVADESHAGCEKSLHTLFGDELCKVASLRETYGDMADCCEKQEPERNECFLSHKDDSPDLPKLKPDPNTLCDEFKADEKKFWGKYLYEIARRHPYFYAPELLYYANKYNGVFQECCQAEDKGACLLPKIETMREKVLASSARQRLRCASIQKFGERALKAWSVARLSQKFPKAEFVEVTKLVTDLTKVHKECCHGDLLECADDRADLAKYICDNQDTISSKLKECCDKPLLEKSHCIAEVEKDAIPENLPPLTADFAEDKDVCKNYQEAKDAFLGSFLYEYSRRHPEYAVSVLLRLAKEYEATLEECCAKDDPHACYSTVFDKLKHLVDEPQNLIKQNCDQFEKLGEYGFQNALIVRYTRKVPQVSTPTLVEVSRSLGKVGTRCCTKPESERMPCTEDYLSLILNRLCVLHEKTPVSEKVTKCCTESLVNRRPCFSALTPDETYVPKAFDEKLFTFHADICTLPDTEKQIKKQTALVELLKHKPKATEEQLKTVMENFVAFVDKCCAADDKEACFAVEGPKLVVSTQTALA

EC50 (human CaSR [1]; response to addition of 0.5 mM CaCl2, no BSA, read-out: EC50, positive allosteric modulation of CaSR activity): 0.101 ± 0.006 µM
Molecule: C[C@@H](N[C@H]1CCN(c2ccc(CC(=O)NCCCCNC(=O)OC(C)(C)C)cc2)C1)c1cccc2ccccc12 [compound 1]

Molecule: Cc1cc(C(=O)NCCCCN)ccc1C1=C2C=CC(=[N+](C)C)C=C2[Si](C)(C)c2cc(N(C)C)ccc21 [SiR (4)]
normalized fluorescence of the neuromasts to the background fluorescence, mean and standard deviation [2]: 1.28 ± 0.41 | absolute fluorescence in PBS relative to EvoSiR4 and EvoSiR6 [3]: 10 times | increase in absolute fluorescence upon addition of 1% BSA ([4]; 1% BSA compared to PBS): no effect | change in absolute fluorescence in response to BSA ([4]; BSA 0.01–0.1%): no significant change | fluorescence lifetime τ [5]: 1.92 ± 0.733 ns | quantum yield Φ ([5]; 94% ethanol, 750 nM, relative to Rhodamine B): 0.347 | λem ([5]; Table 1): 670 | λex ([5]; Table 1): 650 | extinction coefficient ε ([5]; absorbance at 150–1350 nM, 1 cm cuvette): 7051 M^–1 cm^–1 | fold increase in skewness of pixel intensity distribution, CaSR+ (HCAR) vs CaSR- (CCL39) cells (human CaSR [6]; 500 nM probe, 0.1% BSA): no significant difference

EC50 (human CaSR [1]; dF/F0, read-out: EC50 of intracellular calcium release in response to extracellular calcium): 252 ± 10 µM
Molecule: [Ca+2].[Cl-].[Cl-] [extracellular calcium, CaCl2, reference compound]

increase in signal-to-noise ratio of EvoSiR4 labeling (human CaSR [6]; 100 nM tannic acid, CaSR+ cells labeled with 500 nM EvoSiR4): 40% | IC50 of quenching the fluorescence of EvoSiR probes and SiR (4) [7]: low nanomolar ranges
Molecule: tannic acid [reference compound]
